Measured values from US7501410B2, “Methods of inhibiting BTK and SYK protein kinases” (Roche Palo Alto LLC, priority 2006, dated 2009).
Where “and” joins values, the source holds several entries; their conditions need not be identical. Equal entries are not always repeated. Where two headings read alike, the source gives them in different places.

Tests used:
[1] = target: T1, Bruton's Tyrosine Kinase (Btk) (Homo sapiens, UniProt Q06187); assay: Determination of IC50 of Bruton's Tyrosine Kinase (Btk) inhibition, 33P filtration assay; type: biochemical; details: His-tagged full-length Btk, 100 μM ATP
T1 construct: 5-10 nM Btk enzyme (His-tagged, full-length); His tag
Text: Determination of IC50 of Bruton's Tyrosine Kinase (Btk) Inhibition
The assay is a capture of radioactive ^33P phosphorylated product through filtration. The interactions of Btk, biotinylated SH2 peptide substrate (Src homology), and ATP lead to phosphorylation of the peptide substrate. Biotinylated product is bound streptavidin sepharose beads. All bound, radiolabeled products are detected by scintillation counter.
Plates assayed are 96-well polypropylene (Greiner) and 96-well 1.2 μm hydrophilic PVDF filter plates (Millipore). Concentrations reported here are final assay concentrations: 10-100 μM compounds in DMSO (Burdick and Jackson), 5-10 nM Btk enzyme (His-tagged, full-length), 30 μM peptide substrate (Biotin-Aca-[…]-NH2), 100 μM ATP (Sigma), 8 mM imidazole (Sigma, pH 7.2), 8 mM glycerol-2-phosphate (Sigma), 200 μM EGTA (Roche Diagnostics), 1 mM MnCl2 (Sigma), 20 mM MgCl2 (Sigma), 0.1 mg/ml BSA (Sigma), 2 mM DTT (Sigma), 1 μCi ^33P ATP (Amersham), 20% streptavidin sepharose beads (Amersham), 50 mM EDTA (Gibco), 2 M NaCl (Gibco), 2 M NaCl w/1% phosphoric acid (Gibco), microscint-20 (Perkin Elmer).
IC50 determinations are calculated from 10 data points per compound utilizing data produced from a standard 96-well plate assay template. One control compound and seven unknown inhibitors were tested on each plate and each plate was run twice. Typically, compounds were diluted in half-log starting at 100 μM and ending at 3 nM. The control compound was staurosporine. Background was counted in the absence of peptide substrate. Total activity was determined in the presence of peptide substrate. The following protocol was used to determine BTK inhibition.
1) Sample preparation: The test compounds were diluted at half-log increments in assay buffer (imidazole, glycerol-2-phosphate, EGTA, MnCl2, MgCl2, BSA).
2) Bead preparation • a.) rinse beads by centrifuging at 500 g • b.) reconstitute the beads with PBS and EDTA to produce a 20% bead slurry
3) Pre-incubate reaction mix without substrate (assay buffer, DTT, ATP, ^33P ATP) and mix with substrate (assay buffer, DTT, ATP, ^33P ATP, peptide substrate) 30° C. for 15 min.
4) To start assay, pre-incubate 10 μL BTK in enzyme buffer (imidazole, glycerol-2-phosphate, BSA) and 10 μL of test compounds for 10 min at RT.
5) Add 30 μL reaction mixture without or with substrate to BTK and compounds.
6) Incubate 50 μL total assay mix for 30 min at 30° C.
7) Transfer 40 μL of assay to 150 μL bead slurry in filter plate to stop reaction.
8) Wash filter plate after 30 min, with following steps • a. 3 ×250 μL NaCl • b. 3×250 μL NaCl containing 1% phosphoric acid • c. 1×250 μL H2O
9) Dry plate for 1 h at 65° C. or overnight at RT
10) Add 50 μL microscint-20 and count ^33P cpm on scintillation counter.
Calculate percent activity from raw data in cpm percent activity=(sample−bkg)/(total activity−bkg)×100

[2] = target: T2, Spleen Tyrosine Kinase (SYK) aa 360-635 (Homo sapiens, UniProt P43405); assay: Determination of IC50 of Spleen Tyrosine Kinase (SYK) inhibition, 33P kinase assay; type: biochemical; details: recombinant human SYK360-635, 20 μM ATP
T2 construct: truncated construct of Spleen Tyrosine Kinase aa 360-635; made in house
Procedure: Determination of IC50 of Spleen Tyrosine Kinase (SYK) Inhibition
The SYK kinase assay is a standard kinase assay adapted to a 96 well plate format. This assay is performed in 96-well format for IC50 determination with 8 samples which represented 10 half log dilutions and a 40 μL reaction volume. The assay measures the incorporation of radiolabeled ^33P γATP into an N-terminally biotinylated peptide substrate, derived from naturally occurring phosphoacceptor consensus sequence (Biotin-11aa DY*E). Phosphorylated products were detected upon termination of reactions with EDTA and the addition of Streptavidin coated beads. • Assay plates: 96-well MultiScreen 0.65 um filter plates (Millipore Cat. No.: MADVNOB10) • Streptavidin coated beads: Streptavidin Sepharose TM, suspension 5.0 mL, in 50 mM EDTA/PBS diluted (1:100), (Amersham, Cat. No.: 17-5113-01) • Compounds: 10 mM in 100% dimethylsulfoxide (DMSO), final conc.: compound 0.003-100 uM in 10% DMSO • Enzyme: SYK RPA purified, truncated construct of Spleen Tyrosine Kinase aa 360-635, stock solution 1 mg/mL, MW: 31.2 KDa, final conc.:0.0005 μM. • Peptide 1: biotinylated peptide is derived from a naturally occurring phosphor-acceptor consensus sequence (Biotin-[…]), special order from QCB, stock solution 20 mM, final conc.: 5.0 μM. • ATP: Adenosine-5′-triphosphate 20 mM, (ROCHE Cat. No.:93202720), final concentration: 20 μM • Buffer: HEPES: 2-Hydroxyethyl piperazine-2-ethanesulfonic acid (Sigma, Cat. No.: H-3375) final concentration: 50 mM HEPES pH7.5 • BSA: Bovine Serum Albumin Fraction V, fatty acid free (Roche Diagnostics GmbH, Cat. No. 9100221) diluted to a final concentration of 0.1% • EDTA: EDTA stock solution 500 mM, (GIBCO, Cat. No.: 15575-038) final concentration: 0.1 mM • DTT: 1,4-Dithiothreitol (Roche Diagnostics GmbH, Cat. No.: 197777), final conc.: 1 mM • MgCl2×6H2O: MERCK, Cat. No.: 105833.1000, final concentration: 10 mM • Assay Dilution Buffer (ADB): 50 mM HEPES, 0.1 mM EGTA, 0.1 mM Na Vanadate, 0.1 mM β-glycerophosphate, 10 mM MgCl2, 1 mM DTT, 0,1% BSA, pH 7.5 • Bead wash buffer: 10 g/L PBS (Phosphate buffered saline) with 2M NaCl+1% phosphoric acid Experimental Method:
In 40 μL volume, 26 μL of ADB diluted, purified recombinant human SYK360-635 [0.5 nM] was mixed with 4 μL of 10× concentrations of the test compounds, [usually 100 μM-0.003 μM] in [10%] DMSO and the mixture was incubated for 10 min at RT.
The kinase reaction was initiated by the addition of 10 μL 4× substrate cocktail containing the DYE peptide substrate [0 or 5 μM], ATP [20 μM] and […] [2 μCi/rxn]. After incubation at 30° C. for 15 min, the reaction was terminated by the transfer of 25 μL of the reaction sample to a 96 well 0.65 um Millipore MADVNOB membrane/plate containing 200 μL 5 mM EDTA and 20% Streptavidine coated beads in PBS.
The unbound radionucleotides were washed under vacuum with 3×250 μL 2M NaCl; 2×250 μL 2M NaCl+1% phosphoric acid; 1×250 μL H2O. After the last wash membrane/plates were transferred to an adaptor plate, heat dried for 15 min at 60° C., and 50 μL scintillation cocktail was added to each well and 4 h later the amount of radioactivity was counted in a top counter.
The IC50 was calculated using a non-linear curve fit with XLfit software (ID Business Solution Ltd., Guilford, Surrey, UK). […] Representative results are in Table 1.

T1 sequence (Q06187 whole entry): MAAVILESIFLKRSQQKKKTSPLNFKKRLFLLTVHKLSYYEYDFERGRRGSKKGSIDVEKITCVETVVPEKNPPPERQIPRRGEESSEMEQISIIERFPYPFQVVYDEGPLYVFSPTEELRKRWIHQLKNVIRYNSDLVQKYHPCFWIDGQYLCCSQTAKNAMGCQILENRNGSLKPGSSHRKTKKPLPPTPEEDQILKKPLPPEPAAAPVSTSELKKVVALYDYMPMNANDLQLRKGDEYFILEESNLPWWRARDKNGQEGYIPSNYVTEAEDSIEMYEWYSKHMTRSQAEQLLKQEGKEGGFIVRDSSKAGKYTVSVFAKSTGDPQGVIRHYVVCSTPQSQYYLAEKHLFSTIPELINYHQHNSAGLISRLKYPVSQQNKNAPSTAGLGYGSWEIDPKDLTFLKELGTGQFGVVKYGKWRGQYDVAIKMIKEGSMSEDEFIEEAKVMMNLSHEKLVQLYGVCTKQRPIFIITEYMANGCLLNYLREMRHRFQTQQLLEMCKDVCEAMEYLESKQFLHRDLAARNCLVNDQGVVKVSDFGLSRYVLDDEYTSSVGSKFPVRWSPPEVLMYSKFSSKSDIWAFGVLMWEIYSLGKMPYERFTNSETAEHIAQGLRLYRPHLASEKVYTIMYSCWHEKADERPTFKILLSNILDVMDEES

Compound	IC50 [1] [µM]	IC50 ([2]; read-out: IC50 (μM) SYK Assay) [µM]	IC50 ([2]; IC50 (μM) SYK Assay)
Cc1cc(Nc2nn(C(C)C)c(=O)c3cc(F)ccc23)n[nH]1 [Example E-2, 7-Fluoro-2-isopropyl-4-(5-methyl-1H-pyrazol-3-ylamino)-2H-phthalazin-1-one]	9.53	7.61	
Cc1cc(Nc2nn(C(C)C)c(=O)c3ccc(F)cc23)n[nH]1 [Example E-3, 6-Fluoro-2-isopropyl-4-(5-methyl-1H-pyrazol-3-ylamino)-2H-phthalazin-1-one]	58.2	87.5	
Cc1cc(Nc2nn(CC(=O)c3ccccc3)c(=O)c3ccccc23)n[nH]1 [Example E-9, 4-(5-methyl-1H-pyrazol-3-ylamino)-2-(2-oxo-2-phenyl-ethyl)-2H-phthalazin-1-one]	10.4	7.67	
Cc1cc(Nc2nn(C(C)C)c(=O)c3ccc(N4CCOCC4)cc23)n[nH]1 [Example F-2, 2-Isopropyl-4-(5-methyl-1H-pyrazol-3-ylamino)-6-morpholino-2H-phthalazin-1-one]	> 100	36.4	
Cc1cc(Nc2nn(C(C)C)c(=O)c3ccc(N(C)C)cc23)n[nH]1 [Example F-7, 2-Isopropyl-4-(5-methyl-1H-pyrazol-3-ylamino)-6-dimethylamino-2H-phthalazin-1-one]	14.6	37.4	
Cc1cc(Nc2nn(C(C)C)c(=O)c3cc(N4CCCCC4)ccc23)n[nH]1 [Example F-10, 2-Isopropyl-4-(5-methyl-1H-pyrazol-3-ylamino)-7-piperidin-1-yl-2H-phthalazin-1-one]	0.608		0.551 µM and 4.3 µM and 3.57 µM
COc1ccc2c(Nc3cc(C)[nH]n3)nn(C(C)C)c(=O)c2c1 [Example G-1, 2-Isopropyl-4-(5-methyl-1H-pyrazol-3-ylamino)-7-methoxy-2H-phthalazin-1-one]	0.724	0.793	
Cc1cc(Nc2nn(C(C)C)c(=O)c3cc(O)ccc23)n[nH]1 [Example G-6, 7-Hydroxy-2-isopropyl-4-(5-methyl-1H-pyrazol-3-yl-amino)-2H-phthalazin-1-one]	1.28	2.52	
CSc1ccc2c(Nc3cc(C)[nH]n3)nn(C(C)C)c(=O)c2c1 [Example H-1, 2-Isopropyl-4-(5-methyl-1H-pyrazol-3-ylamino)-7-methylsulfanyl-2H-phthalazin-1-one]	4.32	1.57	
Cc1cc(Nc2nn(C(C)C)c(=O)c3cc(S(C)(=O)=O)ccc23)n[nH]1 [Example H-2, 2-Isopropyl-7-methanesulfonyl-4-(5-methyl-1H-pyrazol-3-ylamino)-2H-phthalazin-1-one]	1.11	4.29	
Cc1cc(Nc2nn(C(C)C)c(=O)c3cc(N(C)Cc4ccncc4)ccc23)n[nH]1 [Example I-2, 2-Isopropyl-4-(5-methyl-1H-pyrazol-3-ylamino)-7-(methyl-pyridin-4-ylmethyl-amino)-2H-phthalazin-1-one]	0.231	0.392	
CC(=O)Nc1ccc2c(Nc3cc(C)[nH]n3)nn(C(C)C)c(=O)c2c1 [Example I-8, N-[3-Isopropyl-1-(5-methyl-1H-pyrazol-3-ylamino)-4-oxo-3,4-dihydro-phthalazin-6-yl]-acetamide]	2.23	5.62	
Cc1cc(Nc2nn(C(C)C)c(=O)c3cc(C(=O)NC(C)C)ccc23)n[nH]1 [Example M-5, 3-Isopropyl-1-(5-methyl-1H-pyrazol-3-ylamino)-4-oxo-3,4-dihydro-phthalazine-6-carboxylic acid isopropylamide]	0.769	2.16	
Cc1cc(Nc2nn(C(C)C)c(=O)c3cc(C(=O)OCC4CC4)ccc23)n[nH]1 [Example M-6, 3-Isopropyl-1-(5-methyl-1H-pyrazol-3-ylamino)-4-oxo-3,4-dihydro-phthalazine-6-carboxylic acid cyclopropylmethyl ester]	67.7	9.99	
Cc1cc(Nc2nn(C(C)C)c(=O)c3cc(CO)ccc23)[nH]n1 [Example M-9, 7-Hydroxymethyl-2-isopropyl-4-(5-methyl-1H-pyrazol-3-ylamino)-2H-phthalazin-1-one]	0.782	0.666	
